From publication PMC5805526, “ZB716, a steroidal selective estrogen receptor degrader (SERD), is orally efficacious in blocking tumor growth in mouse xenograft models” (Oncotarget, 2018)
Like-named read-outs stand apart in the source and are kept apart here.

What was measured:
[1] = Drug concentrations in final plasma and tumor tissue of MCF-7 xenograft mice; assay type: in vivo; details: female, Nu/Nu, mouse
Method: The plasma samples of 100 μL each were processed for analysis by a TSQ UPLC-MS/MS system. Aliquots of 10 μL of 0.5 ng/μl E-Tamoxifen-2C^13, N^15, 200 μL methanol, and 400 μl chloroform were added to the plasma in a 1.5 mL centrifuge tube in sequence. The sample was vortexed and stored at −20°C for 4 hours, followed by sonication in a Branson B3510MT Ultrasonic Cleaners for 30 min and centrifuged at 12000 RPM on a Heraeus Fresco 21 Refrigerated Micro Centrifuge from Thermo Fisher Scientific for 10 min. The supernatant was dried with a nitrogen gas flow and suspended in 100 μL methanol. Aliquots of 10 μL of the above processed samples were injected into a TSQ Vantage mass spectrometer connected with a heated electrospray ionization probe and a Dionex Ultimat 3000 UHPLC with a Hypersil gold column (50×2.1 mm). The probe setting and front mass spectrometer setting were controlled as follows: spray voltage 3200 voltage, auxiliary gas 10psi, vaporizer temperature 365°C, capillary temperature 300°C, sheath gas 30psi, S-lens RF amplitude 51 voltage. The flow gradient was started with initial 30% mobile phase A of water with 0.05% formic acid to 1 min, to 100% mobile phase B of acetonitrile with 0.05% formic acid at 8 min, and return to 30% mobile phase A at 13 min.

[2] = system: T47D/Y537S breast cancer cells; assay: T47D/Y537S ESR1 mutant cell growth inhibition; assay type: cell-based; details: Homo sapiens, 120 h, 5 days treatment
Excerpt: Wild-type ESR1, the Y537S ESR1 mutant were fused to a FLAG tag at their C-termini and cloned into the lentiviral vector pFLRu-FH [30]. Y537S mutation was first introduced into ESR1 using the QuikChange II XL Site-Directed Mutagenesis Kit (Agilent) with an ESR1-encoding plasmid (Accession number NM_000125.1, GeneCopoeia Inc.) as the template. […] To make lentiviral particles, pFLRu-FH vector DNAs (encoding ESR1(wt) and ESR1(Y537S)) were cotransfected with the packaging plasmids into HEK293T cells using Fugene 6 (Roche). At 48 hours post transfection, culture media containing different viruses were added to T47D cells in the presence of polybrene followed by 3-day puromycin selection for stable expression.
Viable cell numbers were counted with a Z Series Coulter Counter instrument (Beckman-Coulter) following manufacturer's instructions. […] IC50 values were obtained from dose-response curves for all treatments.

ERα = system: ERα; parameters: method as in PMID 27529700; details: read-out: binding affinity to ERα, EC50; cited from earlier work
ERα LBD = biological target: T1, ERα LBD (Homo sapiens, UniProt P03372); assay: MARCoNI ERα-coregulator interaction peptide microarray; assay type: biochemical; details: 10 μM compound, 7 nM GST-tagged ERα LBD, vs apo
T1 construct: using 7 nM GST-tagged ERα LBD (Invitrogen); purchased Invitrogen
T1 sequence (P03372 311-547 limits assumed): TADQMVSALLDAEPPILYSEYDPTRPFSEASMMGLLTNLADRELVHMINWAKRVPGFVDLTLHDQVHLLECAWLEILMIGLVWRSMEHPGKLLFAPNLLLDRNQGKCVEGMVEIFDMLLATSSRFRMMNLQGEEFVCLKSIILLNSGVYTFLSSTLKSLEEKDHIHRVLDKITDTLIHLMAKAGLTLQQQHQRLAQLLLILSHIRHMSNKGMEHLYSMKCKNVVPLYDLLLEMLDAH
Method: The modulation of ERα-coregulator interaction by compound was analyzed using MARCoNI (Micro Array Assay for Real-time Coregulator Nuclear receptor Interaction) as described previously using 7 nM GST-tagged ERα LBD (Invitrogen).
Each condition is measured using 3 technical replicates (arrays). After incubation, unbound receptor is removed by washing, and a tiff image of each array is acquired using a CCD camera and receptor binding to each peptide on the array is quantified using dedicated software. For each condition, the three technical replicates are used to calculate mean and S.E.M. ERα binding as well as compound-induced log-fold modulation vs. control for each individual motif. Significance of the modulation is assessed using Student's t-Test.

[3] = parameters: method as in PMID 27529700; details: after ZB716 dosing; cited from earlier work
[4] = system: MCF-7 breast cancer cells; assay: MCF-7 cell growth inhibition; assay type: cell-based; details: Homo sapiens, MCF7, 120 h; 5 days treatment, cell count vs DMSO
Method: At the end of treatment, surviving cells were counted and normalized to control cells that were treated with vehicle (DMSO) only. (B) IC50 values were obtained by deriving logarithmic curves from the %cell survival vs. treatment dose plot.

## C[C@]12CC[C@@H]3c4ccc(O)cc4C[C@@H](CCCCCCCCC[S+]([O-])CCCC(F)(F)C(F)(F)F)[C@H]3[C@@H]1CC[C@@H]2O (some centres unmarked) [fulvestrant, reference compound]
[1]; plasma, subcutaneous, 200 mg/kg/wk, read-out: Average concentration in final plasma
  concentration at 3 weeks: 27.9 ng/mL
[1]; plasma, treatment ZB716 10 mg/kg daily PO, end of study, read-out: Average concentration in final plasma
  concentration at 3 weeks: 18.4 ng/mL
[1]; plasma, treatment ZB716 30 mg/kg daily PO, end of study, read-out: Average concentration in final plasma
  concentration at 3 weeks: 145 ng/mL
[1]; tumor tissue, subcutaneous, 200 mg/kg/wk, read-out: Average concentration in tumor tissue
  concentration at 3 weeks: 160 ng/mL
[1]; tumor tissue, treatment ZB716 10 mg/kg daily PO, end of study, read-out: Average concentration in tumor tissue
  concentration at 3 weeks: 67.9 ng/mL
[1]; tumor tissue, treatment ZB716 30 mg/kg daily PO, end of study, read-out: Average concentration in tumor tissue
  concentration at 3 weeks: 118 ng/mL
[2]
  IC50: 32 nM
ERα
  EC50: […]
ERα LBD
  modulation of ERα interaction with coactivator motifs (NCOA family): strongly reduced
[3]
  share of total active ingredients in mice plasma (active metabolite of ZB716): 10-20%
[4]
  IC50: 1.5 nM
